Test results taken from ChEMBL document CHEMBL1148151, “Micromide and guamamide: cytotoxic alkaloids from a species of the marine cyanobacterium Symploca” (J Nat Prod, 2004).

Test system: KB
Test: Cytotoxicity against human KB cells
Type: functional, cell-based

SMILES	IC50
CCCCCCCCCCCC(=O)OC(C)C(OC(C)=O)C(C)C(=O)NC[C@H](O)CC(=O)OC (some centres not stated) [GUAMAMIDE]	1200 nM
CCC[C@H](CC(=O)N[C@@H](Cc1ccccc1)C(=O)N(C)[C@@H](C(=O)N[C@H](C(=O)N(C)[C@H](C(=O)N(C)[C@@H](Cc1ccccc1)C(=O)N(C)Cc1nccs1)[C@@H](C)CC)C(C)C)C(C)C)OC [MICROMIDE]	260 nM
